Data as given in PMC6274026 (Molecules, 2016).
Values joined by “and” are separate entries in the source; they are usually repeats but may differ in a detail not shown here. Equal entries are not always repeated. Where two headings read alike, the source gives them in different places.

Legend:
BT-549 [1] = test: Clonogenicity (recovery) assay, 72 h post-treatment, SRB; settings: for percentage of recovery: 72 h post-treatment; for effect on proliferation and recovery after treatment: in words
in vitro = settings: human
BT-549 [2] = settings: for percentage of survival: 72 h; for Potency compared to control POD: BT-549, relative to POD; for Potency compared to control VP-16: BT-549, relative to VP-16; for Selectivity index: IC50 MCF-10A / IC50 BT-549; for IC50: read-out: Cytotoxic activity IC50, BT-549, 72 h, mean of three independent experiments ± S.D.
MCF-10A [3] = settings: for percentage of survival: 0.08 µg/mL, 72 h; for Potency compared to control POD: relative to POD; for Potency compared to control VP-16: relative to VP-16
MCF-7 [4] = test: Clonogenicity (recovery) assay, 72 h post-treatment, SRB; settings: for percentage of recovery: 72 h post-treatment; for effect on proliferation and recovery after treatment: in words
MDA-MB-231 [5] = test: as above; settings: for percentage of recovery: 72 h post-treatment; for effect on proliferation and recovery after treatment: in words
MCF-7 [6] = settings: for Selectivity index: IC50 MCF-10A / IC50 MCF-7; for percentage of survival: 72 h; for Potency compared to control POD: MCF-7, relative to POD; for Potency compared to control VP-16: MCF-7, relative to VP-16; for IC50: read-out: Cytotoxic activity IC50, MCF-7, 72 h, mean of three independent experiments ± S.D.
MCF-10A [7] = test: Clonogenicity (recovery) assay, 72 h post-treatment, SRB; settings: for percentage of recovery: 0.08 µg/mL, 72 h post-treatment; for effect on proliferation and recovery after treatment: in words
MDA-MB-231 [8] = settings: for Selectivity index: IC50 MCF-10A / IC50 MDA-MB-231; for percentage of survival: 72 h; for Potency compared to control POD: MDA-MB-231, relative to POD; for Potency compared to control VP-16: MDA-MB-231, relative to VP-16; for IC50: read-out: Cytotoxic activity IC50, MDA-MB-231, 72 h, mean of three independent experiments ± S.D.
[9] = test system: MCF-7, MDA-MB-231, BT-549, and MCF-10A; test: Cytotoxicity, clonogenicity and selectivity over the panel of breast cell lines; assay type: cell-based, human; settings: in words, SI ≥ 10 selective
[10] = Water solubility (observation in culture medium); assay type: physicochemical; settings: in words
[11] = Cytotoxic activity IC50, MCF-10A, 72 h, mean of three independent experiments ± S.D.

Row | Structure (SMILES) | percentage of recovery (BT-549 [1]; BT-549, 0.08 µg/mL) | effect on proliferation and recovery after treatment (BT-549 [1]; BT-549, 10, 2, and 0.4 µg/mL) | IC50 at 72 h (in vitro; [11]) | percentage of survival (BT-549 [2]; BT-549, 0.08 µg/mL) | Potency compared to control POD (BT-549 [2]) | Selectivity index (BT-549 [2]) | IC50 (BT-549 [2]) | percentage of survival (MCF-10A [3]) | percentage of recovery (MCF-7 [4]; MCF-7, 0.08 µg/mL) | percentage of recovery (MDA-MB-231 [5]; MDA-MB-231, 0.08 µg/mL) | percentage of recovery (MDA-MB-231 [5]; MDA-MB-231, 0.4 µg/mL) | effect on proliferation and recovery after treatment (MDA-MB-231 [5]; MDA-MB-231, 10 and 2 µg/mL) | Selectivity index (MCF-7 [6]) | percentage of survival (MCF-7 [6]; MCF-7, 0.08 µg/mL) | IC50 (MCF-7 [6]) | percentage of recovery (MCF-10A [7]; MCF-10A) | Selectivity index (MDA-MB-231 [8]) | percentage of survival (MDA-MB-231 [8]; MDA-MB-231, 0.08 µg/mL) | percentage of survival (MDA-MB-231 [8]; MDA-MB-231, 0.4 µg/mL) | IC50 (MDA-MB-231 [8]) | also measured
1 | COc1ccc([C@@H]2c3cc4c(c(OC)c3C[C@H]3COC(=O)[C@@H]32)OCO4)cc1OC [Compound 1, 5′-demethoxy-β-peltatin-A-methylether] | 124% ± 9.7% | dose-dependent cytotoxic effect at concentrations of 10, 2, and 0.4 µg/mL, which persisted after removal of the treatment | 130 nM | 82% ± 15.7% | 0.004 | 0.11 | 1260 nM and 1200 nM and 1270 nM | 61% ± 7.9% | 172% ± 24.5% | 184% ± 6.4% | 49% ± 18.6% | inhibited proliferation and blocked recovery | 0.02 | 130% ± 18.55% | 7220 nM and 7200 nM | 83% ± 3.3% | 0.06 | 96% ± 6.9% | 28% ± 3.1% | 2440 nM and 2400 nM | Potency compared to control VP-16 (BT-549 [2]): 0.126; IC50 (MCF-10A [3]; read-out: Cytotoxic activity IC50, 72 h, mean of three independent experiments ± S.D.): 137 ± 15 nM; Potency compared to control POD (MCF-10A [3]): 0.144; Potency compared to control VP-16 (MCF-10A [3]): 0.341; effect on proliferation and recovery after treatment (MCF-7 [4]; MCF-7, 10, 2, and 0.4 µg/mL): dose-dependent cytotoxic effect at concentrations of 10, 2, and 0.4 µg/mL, which persisted after removal of the treatment; Potency compared to control POD (MCF-7 [6]): 0.002; Potency compared to control VP-16 (MCF-7 [6]): 0.017; effect on proliferation and recovery after treatment (MCF-10A [7]; MCF-10A, 10, 2, and 0.4 µg/mL): dose-dependent cytotoxic effect at concentrations of 10, 2, and 0.4 µg/mL, which persisted after removal of the treatment; Potency compared to control POD (MDA-MB-231 [8]): 0.010; Potency compared to control VP-16 (MDA-MB-231 [8]): 0.016
2 | COc1cc([C@@H]2c3cc4c(cc3[C@H](O)[C@H]3COC(=O)[C@H]23)OCO4)cc(OC)c1OC [POD, Podophyllotoxin, reference compound] | – | – | – | – | – | – | 5 ± 1 nM | – | – | – | – | – | 1.11 | – | 18 ± 1 nM | – | 0.81 | – | – | 24 ± 6 nM | effect on proliferation and recovery after treatment (BT-549 [1]; BT-549, different POD concentrations): arrest of cell proliferation, which persisted even after the toxic agent was removed; IC50 at 72 h (in vitro): 20 ± 8 nM; selectivity in the selectivity analysis [9]: non-selective activity; survival (MCF-10A [3]; even at high concentrations (10, 2, 0.4, 0.08, and 0.016 µg/mL)): about 20%; effect on proliferation and recovery after treatment (MCF-7 [4]; MCF-7, different POD concentrations): arrest of cell proliferation, which persisted even after the toxic agent was removed; effect on proliferation and recovery after treatment (MDA-MB-231 [5]; MDA-MB-231, different POD concentrations): arrest of cell proliferation, which persisted even after the toxic agent was removed; effect on proliferation and recovery after treatment (MCF-10A [7]; MCF-10A, different POD concentrations): arrest of cell proliferation, which persisted even after the toxic agent was removed
3 | COc1cc([C@@H]2c3cc4c(cc3[C@@H](O[C@@H]3O[C@@H]5CO[C@@H](C)O[C@H]5[C@H](O)[C@H]3O)[C@H]3COC(=O)[C@H]23)OCO4)cc(OC)c1O [VP-16, etoposide, reference compound] | 101% ± 11.7% | did not recover proliferation after treatment | – | 67% ± 7.5% | – | 0.29 | 160 ± 10 nM | 46% ± 2.8% | 183% ± 7.4% | 160% ± 7.4% | 98% ± 16.1% | caused inhibition of proliferation and cell recovery | 0.38 | 71% ± 20.7% | 124 ± 26 nM | 79% ± 5.1% | 1.20 | 82% ± 5.6% | 48% ± 2.4% | 38 ± 4 nM | IC50 at 72 h (in vitro; MCF-10A cells, Cytotoxic activity IC50, MCF-10A, 72 h, mean of three independent experiments ± S.D.): 47 ± 9 nM; selectivity in the selectivity analysis [9]: non-selective compound; effect on proliferation and recovery after treatment (MCF-7 [4]; MCF-7, 10, 2, and 0.4 µg/mL): did not recover proliferation after treatment; effect on proliferation and recovery after treatment (MCF-10A [7]; MCF-10A, 10, 2, and 0.4 µg/mL): did not recover proliferation after treatment
4 | COc1cc(C2=C3C(=O)OC[C@@H]3[C@@H](OC(C)=O)c3cc4c(cc32)OCO4)cc(OC)c1OC [Compound 4, 7′,8′-dehydroacetylpodophyllotoxin] | 176% ± 18% | – | 468 ± 2 nM | 74% ± 7.4% | 0.086 | 7.62 | – | about 55% ± 17.2% | 177% ± 15.6% | 180% ± 13.5% | 75% ± 12.2% | inhibitory effect on the survival and recovery | 1.32 | 96% ± 13.5% | 350 nM and 353 nM | 160% ± 21% | 2.90 | 93% ± 6.9% | 57% ± 1.4% | 160 nM and 161 nM | percentage of recovery (BT-549 [1]; BT-549, 0.4 µg/mL): 98% ± 27.9%; effect on proliferation and recovery after treatment (BT-549 [1]; BT-549, 10 and 2 µg/mL): inhibitory effect on the survival and recovery; water solubility [10]: low water solubility; percentage of survival (BT-549 [2]; BT-549, 0.4 µg/mL): 48% ± 8.8%; Potency compared to control VP-16 (BT-549 [2]): 2.6 and 2.604; Potency compared to control POD (MCF-10A [3]): 0.042; Potency compared to control VP-16 (MCF-10A [3]): 0.100; percentage of recovery (MCF-7 [4]; MCF-7, 0.4 µg/mL): 57% ± 14.5%; percentage of recovery (MCF-7 [4]; MCF-7, 2 µg/mL): 29% ± 0.7%; percentage of survival (MCF-7 [6]; MCF-7, 0.4 µg/mL): 21% ± 7.2%; percentage of survival (MCF-7 [6]; MCF-7, 2 µg/mL): 11% ± 7.6%; Potency compared to control POD (MCF-7 [6]): 0.050; Potency compared to control VP-16 (MCF-7 [6]): 0.351; Potency compared to control POD (MDA-MB-231 [8]): 0.151; Potency compared to control VP-16 (MDA-MB-231 [8]): 0.242
